Values joined by “and” are separate entries in the source; they are usually repeats but may differ in a detail not shown here. Equal entries are not always repeated.
Key:
[1] = test system: COX-2; assay: COX-2 protein levels analysis by immunoblotting; assay type: cell-based; conditions: human monocytes co-treated with MGO-AGEs 50 μg/mL; immunoblot densitometry
Experimental: COX-2 protein levels analysis: The 50 μg/mL of protein was loaded onto 10% sodium dodecyl sulfate-polymerized acrylamide gel electrophoresis (SDS-PAGE), and transferred to nitrocellulose membranes using power blotter XL System (Invitrogen; Thermo Fisher Scientific). Subsequently, the membrane was incubated for 1 h in 1% bovine serum albumin in PBS with 0.1% Tween-20 to block unspecified binding. The protein bands of the membrane were probed with primary monoclonal antibody COX-2 (Thermo Fisher Scientific, Waltham, MA, USA), and B-actin (Cloud-Clone Corp., Wuhan, China) for overnight at 4° C. Following incubation, the membrane was rinsed with tris buffer saline tween (TBST) three times, and then exposed to secondary antibody (HRP mouse mono anti-rabbit IgG; Abeam, Cambridge, UK) at room temperature for an hour. The washing was again carried three times with TBST, and then the membrane was exposed to ECL (Sangon biotech, Shanghai, China) to visualize the bands in Western Blot Detection System (Thermo Fisher Scientific, Waltham, MA, USA). The densitometry of immuno-positive COX-2, and β-actin bands was used by Image J.

[2] = test system: PGE2; assay: PGE2 levels analysis by ELISA in THP-1 culture supernatants; assay type: cell-based, human; conditions: THP-1, compounds 1 h, then AGEs 50 μg/mL
Experimental: PGE2 levels analysis: ELISA-based method was employed to identify the concentration of PGE2 in culture supernatants of THP-1 cells that was initially exposed with compounds for 1 h, and then stimulated with AGEs (50 μg/mL). All the steps were followed according to the manufacturer's protocols.

[3] = test system: MGO-AGEs-induced ROS in THP-1 monocytes; assay: Anti-oxidation activity, DCFH-DA assay of MGO-AGEs-mediated ROS in monocytes; assay type: cell-based, human; conditions: for ROS (DCF fluorescence) in MGO-AGEs-treated monocytes: 100 μM (maximum inhibition), MGO-AGEs 50 μg/mL, 24 h; for antioxidant activity / ROS production inhibition (in words): MGO-AGEs 50 μg/mL-treated THP-1 monocytes
Experimental: Anti-oxidation activity: The measurement of effect of derivatives on AGEs-mediated ROS was based on the previously reported protocol of Soumyarani and colleagues with slight amendments. Initially, 1×10^6 monocytes/mL were loaded in sterile 96-well flat bottom black fluorescent plate, and pre-incubated with DCFH-DA (10 μM; Sigma-Aldrich Chemical Corporation, St. Louis, Missouri, USA) for 45 min at 37° C. Followed by the incubation, antiglycating, non-toxic carbazole-linked triazole derivatives (10, 30, 50, and 100 μM) were added to the wells for 1 h before co-treatment of cells with MGO-AGEs (50 μg/mL) for next 24 h. Next, the fluorometric measurement of converted DCFH into oxidized DCF product was carried out via spectrofluorimeter (Varioskanmicroplate reader, Thermo Fisher Scientific, USA) using 485 nm excitation and 520 nm emission wavelengths. Various controls were plated in each experiment. Wells containing culture RPMI with MGO-AGEs (50 μg/mL) and H2O2 ([…]) served as positive controls, while cells containing BSA were taken as negative control.

[4] = test system: NF-κB (p65) translocation in monocytes; assay: NF-κB (p65) translocation analysis by immunocytochemistry; assay type: cell-based, human; conditions: compounds 100 μM, 1 h pre-incubation; AGEs 50 μg/mL 1 h; MGO-AGEs control 75 RFU, BSA 11 RFU
Experimental: NF-κB (p^65) translocation analysis: The monocytes at the density of 1×10^6 cells/mL were pre-incubated with compounds (100 μM) for an h, and then co-incubated with AGEs (50 μg/mL) for another 1 h in a 24-well plate at 37° C. Following treatment, cells were fixed with paraformaldehyde (4% PFA; 10 min), and permeabilized with Triton X-100 (0.2%; 10 min). Next, the cells were rinsed with chilled PBS three times, and incubated with bovine serum albumin (1% BSA; 1 h) to block the non-specific binding sites. Cells were exposed to primary antibody against NF-κB (p 65) (1:300 dilution, Thermo Fisher Scientific, Waltham, MA, USA) for overnight at 4° C. Subsequently followed by washing the cells with chilled PBS three times, secondary antibody (polyclonal fluorescein isothiocyanate (FITC)-conjugated antibody) to rabbit IgG (1:1000 dilution, Abeam, Cambridge, UK) was used.
Nuclei were counterstained by using DAPI (Thermo Fisher Scientific, Waltham, MA, USA). The BSA-treated monocytes (50 μg/mL) had served as a negative control, while AGEs-treated monocytes (50 μg/mL) as positive control. All the images were taken by using Nikon microscope (Nikon, Tokyo, Japan). The quantification of images was carried out via ImageJ (Image processing and analysis in Java-NIH).

[5] = test system: MGO-mediated BSA glycation; assay: In vitro antiglycation activity, MGO-BSA glycation assay (fluorescence); assay type: biochemical, bovine; conditions: for IC50 / % inhibition of MGO-BSA glycation: BSA 10 mg/mL, MGO 0.1 M, 24 h, 37° C.; for IC50: read-out: IC50 antiglycation, MGO-BSA model; for % inhibition of MGO-BSA glycation: compounds at 1 mM
Experimental: In vitro antiglycation activity: The MGO-BSA assay was performed as per optimized protocol of Jahan, H. et al with slight modifications. Initially, the antiglycation activity of parent compound carbazole (1), and carbazole-linked 1,2,3 triazoles 2-16 were identified at 1 mM using MGO-BSA model. […] BSA (10 mg/mL) incubated with MGO (0.1 M) for 24 h at 37° C. using phosphate-azide buffer (0.1 mM), served as a positive control. The wells with BSA only were taken as negative control. Whereas, rutin and quercetin were used as standard antiglycation agents. After 24 h of incubation, the fluorescence of each well was measured by using microplate reader (Varioskan lux, Thermo Fisher Scientific, 319 Scientific, USA) at 355 nm excitation, and 460 nm emission.
The % inhibition of MGO-BSA-mediated by carbazole-triazole derivatives was quantified by using the following formula: […]
The IC50 of active antiglycation compounds were identified by using EZ-FIT Enzyme Kinetics Program (Perrella Scientific Inc., Amherst, USA).

In the case of `O=C(Cn1cc(Cn2c3ccccc3c3ccccc32)nn1)c1ccc([N+](=O)[O-])cc1` [Compound 12, 2-(4-((9H-Carbazole-9-yl)methyl)-1H-1,2,3-triazole-1-y1)-1-(4-nitrophenyl)ethan-1-one], the “reduction in COX-2 levels compared to MGO-BSA-treated cells” value (“reduction in COX-2 levels” for short) [1] is reported as 2.11 fold and 3 fold, the “effect on PGE2 levels (in words)” value [2] is reported as “reduced PGE2 levels significantly” and the “ROS (DCF fluorescence) in MGO-AGEs-treated monocytes” value (shortened to “ROS (DCF fluorescence)”) [3] is reported as 6.32 RFU. The “antioxidant activity / ROS production inhibition (in words)” value [3] was “excellent ROS production inhibition”, the “NF-κB translocation in MGO-AGEs-treated monocytes” value (from here on “NF-κB translocation”) [4] was 33 RFU and the “antiglycation activity in MGO-BSA model (in words)” value [5] was “excellent antiglycation activity”. The IC50 [5] was 76.1 ± 6 µM and the “% inhibition of MGO-BSA glycation” value [5] was 83.7%.

In the case of `Cc1ncc([N+](=O)[O-])n1CCn1cc(Cn2c3ccccc3c3ccccc32)nn1` [Compound 13, 9-((1-(2-(2-Methyl-5-nitro-1H-imidazol-1-yl)ethyl)-1H1,2,3-triazol-4-yl)methyl)-9H-carbazole], the “effect on PGE2 levels (in words)” value [2] is reported as “reduced PGE2 levels significantly”, the “ROS (DCF fluorescence)” value [3] is reported as 8.75 RFU and the “antioxidant activity / ROS production inhibition (in words)” value [3] is reported as “excellent ROS production inhibition”. For the same compound, the “NF-κB translocation” value [4] was 54 RFU, the “antiglycation activity in MGO-BSA model (in words)” value [5] was “good activity” and the IC50 [5] was 135 ± 5 µM. For the same compound, the “% inhibition of MGO-BSA glycation” value [5] was 77.8%.

In the case of `N.S=C(S)N1CCCC1` [PDTC, reference compound], the “reduction in COX-2 levels” value [1] is reported as 1.60 fold, the “effect on PGE2 levels (in words)” value [2] is reported as “relatively more suppression than quercetin” and the “ROS (DCF fluorescence)” value [3] is reported as 7.84 RFU. For the same compound, the “NF-κB translocation” value [4] was 45 RFU.

For `O=c1c(O)c(-c2ccc(O)c(O)c2)oc2cc(O)cc(O)c12` [Quercetin, 2-(3,4-dihydroxyphenyl)-3,5,7-trihydroxy-4H-chromen-4-one, reference compound], the “reduction in COX-2 levels” value [1] was 1.31 fold, the “ROS (DCF fluorescence)” value [3] was 8.39 RFU and the “NF-κB translocation” value [4] was 55 RFU. The IC50 [5] was 138 ± 4 µM and the “% inhibition of MGO-BSA glycation” value [5] was 58%.

`C[C@@H]1O[C@@H](OC[C@H]2O[C@@H](Oc3c(-c4ccc(O)c(O)c4)oc4cc(O)cc(O)c4c3=O)[C@H](O)[C@@H](O)[C@@H]2O)[C@H](O)[C@H](O)[C@H]1O` [Rutin, 2-(3,4-Dihydroxyphenyl)-5,7-dihydroxy-4-oxo-4H-chromen-3-yl 6-O-(6-deoxy-alpha-L-mannopyranosyl)-beta-D-glucopyranoside, reference compound] was tested, and the “reduction in COX-2 levels” value [1] was 1.65 fold, the “effect on PGE2 levels (in words)” value [2] was “relatively more suppression than quercetin” and the “ROS (DCF fluorescence)” value [3] was 7.44 RFU. For the same compound, the “NF-κB translocation” value [4] was 43 RFU, the IC50 [5] was 104 ± 2 µM and the “% inhibition of MGO-BSA glycation” value [5] was 67%.

Source: patent US11925622B2, “Role of novel carbazole linked 1, 2, 3- triazole analogs in alleviating methylglyoxal-mediated late diabetic vascular complications” (priority 2021, dated 2024)
